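Five compound concentrations were applied to cells in 96-well plates for 48 hours; endpoints were derived by simple linear interpolation of the resulting dose-response curve. GI50 marks 50% less growth.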 Calls of active or inactive are those of the source. Cut-off read from the data, not from the text of the source: active = GI50 up to about 1.1 µM and inactive = higher.
Columns and labels:
Experiment in all cases: NCI-60 cell line screen, 48 h
[1] = tested on: SF-268
[2] = tested on: RPMI-8226
[3] = tested on: IGROV-1
[4] = tested on: NCI/ADR-RES
[5] = tested on: HT-29
[6] = tested on: UO-31
[7] = tested on: SW-620
[8] = tested on: SF-295
[9] = tested on: A549
[10] = tested on: SK-MEL-28
[11] = tested on: KM12
[12] = tested on: 786-0
[13] = tested on: HCT-116
[14] = tested on: SK-MEL-2
[15] = tested on: MDA-N
[16] = tested on: OVCAR-8
[17] = tested on: NCI-H226
[18] = tested on: DU-145
[19] = tested on: SNB-75
[20] = tested on: OVCAR-5
[21] = tested on: HCC 2998
[22] = tested on: U-251
[23] = tested on: SN12C
[24] = tested on: SK-MEL-5
[25] = tested on: ACHN
[26] = tested on: EKVX
[27] = tested on: LOX IMVI
[28] = tested on: PC-3
[29] = tested on: UACC-62
[30] = tested on: HOP-62
[31] = tested on: SR
[32] = tested on: MCF7
[33] = tested on: NCI-H522
[34] = tested on: Hs-578T
[35] = tested on: SK-OV-3
[36] = tested on: SF-539
[37] = tested on: BT-549
[38] = tested on: A498
[39] = tested on: OVCAR-4
[40] = tested on: HCT-15
[41] = tested on: MDA-MB-231
[42] = tested on: TK-10
[43] = tested on: Malme-3M
[44] = tested on: SNB-19
[45] = tested on: COLO 205
[46] = tested on: T47D
[47] = tested on: RXF 393
[48] = tested on: K562
[49] = tested on: UACC-257
[50] = tested on: NCI-H23
[51] = tested on: OVCAR-3
[52] = tested on: HOP-92
[53] = tested on: MDA-MB-435
[54] = tested on: M14
[55] = tested on: CAKI-1
[56] = tested on: NCI-H460
[57] = tested on: CCRF-CEM
[58] = tested on: MOLT-4
[59] = tested on: HL-60

With Cc1c(N2CCCC2)cc2c(c1NC(=O)c1ccccc1Cl)C(C)(C)CC2(C)C the GI50 [1] was 15.4 µM (inactive), the GI50 [2] was 12.9 µM (inactive) and the GI50 [3] was 13.6 µM (inactive). For the same compound, the GI50 [4] was 13.4 µM (inactive), the GI50 [5] was 14.3 µM (inactive) and the GI50 [6] was 13.2 µM (inactive). The GI50 [7] was 16 µM (inactive), the GI50 [8] was 13.3 µM (inactive) and the GI50 [9] was 12.9 µM (inactive). For the same compound, the GI50 [10] was 17.6 µM (inactive), the GI50 [11] was 15.3 µM (inactive) and the GI50 [12] was 14.1 µM (inactive). The GI50 [13] was 10.6 µM (inactive), the GI50 [14] was 16.3 µM (inactive) and the GI50 [15] was 13.9 µM (inactive). For the same compound, the GI50 [16] was 16 µM (inactive), the GI50 [17] was 23.2 µM (inactive) and the GI50 [18] was 15.9 µM (inactive). For the same compound, the GI50 [19] was 15.5 µM (inactive), the GI50 [20] was 18 µM (inactive) and the GI50 [21] was 13.1 µM (inactive). The GI50 [22] was 14.5 µM (inactive), the GI50 [23] was 16.2 µM (inactive) and the GI50 [24] was 16.8 µM (inactive). The GI50 [25] was 15 µM (inactive), the GI50 [26] was 14.5 µM (inactive) and the GI50 [27] was 13.4 µM (inactive). For the same compound, the GI50 [28] was 15.5 µM (inactive), the GI50 [29] was 10.8 µM (inactive) and the GI50 [30] was 14.2 µM (inactive). The GI50 [31] was 14.7 µM (inactive), the GI50 [32] was 13.8 µM (inactive) and the GI50 [33] was 13.1 µM (inactive). The GI50 [34] was 16.7 µM (inactive), the GI50 [35] was 13.1 µM (inactive) and the GI50 [36] was 19.8 µM (inactive). The GI50 [37] was 17.8 µM (inactive), the GI50 [38] was 15 µM (inactive) and the GI50 [39] was 15.7 µM (inactive). For the same compound, the GI50 [40] was 14.6 µM, the GI50 [41] was 15.4 µM (inactive) and the GI50 [42] was 11.1 µM (inactive). The GI50 [43] was 17.7 µM (inactive), the GI50 [44] was 15.2 µM (inactive) and the GI50 [45] was 18.2 µM (inactive). The GI50 [46] was 11.5 µM (inactive), the GI50 [47] was 14.3 µM (inactive) and the GI50 [48] was 35 µM (inactive). For the same compound, the GI50 [49] was 11.7 µM (inactive), the GI50 [50] was 14.7 µM (inactive) and the GI50 [51] was 8.3 µM (inactive). The GI50 [52] was 11.5 µM (inactive), the GI50 [53] was 14.4 µM (inactive) and the GI50 [54] was 13.5 µM (inactive). The GI50 [55] was 13.3 µM (inactive) and the GI50 [56] was 12.3 µM (inactive).
CC1OC(OC2C(OC(=O)[C@]34CCC(C)(C)C[C@H]3C3=CC[C@@H]5[C@@]6(C)CC[C@H](OC7OC(C(=O)O)C(O)C(O)C7O)C(C)(C)[C@@H]6CC[C@@]5(C)[C@]3(C)C[C@H]4O)OCC(O)C2O)C(O)C(OC2OCC(O)(CO)C2O)C1OC1OCC(O)C(O)C1O (stereo not given in full) was tested, and the GI50 [1] was 17.9 µM (inactive), the GI50 [2] was 7.23 µM (inactive) and the GI50 [3] was 16 µM (inactive). For the same compound, the GI50 [57] was 17 µM (inactive), the GI50 [4] was 13.3 µM (inactive) and the GI50 [5] was 3.53 µM (inactive). The GI50 [6] was 2.92 µM (inactive), the GI50 [7] was 10.9 µM (inactive) and the GI50 [8] was 11.9 µM (inactive). For the same compound, the GI50 [9] was 3.9 µM (inactive), the GI50 [10] was 4.49 µM (inactive) and the GI50 [11] was 4.36 µM (inactive). The GI50 [12] was 12.1 µM (inactive), the GI50 [13] was 7.19 µM (inactive) and the GI50 [14] was 6.7 µM (inactive). The GI50 [15] was 4.31 µM (inactive), the GI50 [58] was 13.6 µM (inactive) and the GI50 [16] was 17.1 µM (inactive). For the same compound, the GI50 [17] was 10.9 µM (inactive), the GI50 [59] was 3.19 µM (inactive) and the GI50 [18] was 12.9 µM (inactive). For the same compound, the GI50 [19] was 17.7 µM (inactive), the GI50 [20] was 10.8 µM (inactive) and the GI50 [21] was 1.81 µM (inactive). For the same compound, the GI50 [22] was 9.64 µM (inactive), the GI50 [23] was 3.37 µM (inactive) and the GI50 [24] was 14.8 µM (inactive). The GI50 [25] was 5.15 µM (inactive), the GI50 [26] was 4.3 µM (inactive) and the GI50 [27] was 13.7 µM (inactive). The GI50 [28] was 8.55 µM (inactive), the GI50 [29] was 16 µM (inactive) and the GI50 [30] was 16.1 µM (inactive). For the same compound, the GI50 [31] was 3.94 µM (inactive), the GI50 [32] was 6.17 µM (inactive) and the GI50 [33] was 4.08 µM (inactive). For the same compound, the GI50 [34] was 20.3 µM (inactive), the GI50 [35] was 15.6 µM (inactive) and the GI50 [37] was 5.42 µM (inactive). The GI50 [38] was 1.83 µM (inactive), the GI50 [39] was 10.5 µM (inactive) and the GI50 [40] was 16.4 µM. For the same compound, the GI50 [41] was 3.43 µM (inactive), the GI50 [43] was 11.6 µM (inactive) and the GI50 [44] was 11 µM (inactive). For the same compound, the GI50 [45] was 1.81 µM (inactive), the GI50 [46] was 8.47 µM (inactive) and the GI50 [47] was 15.2 µM (inactive). For the same compound, the GI50 [48] was 10.3 µM (inactive), the GI50 [49] was 11.1 µM (inactive) and the GI50 [50] was 2.59 µM (inactive). The GI50 [51] was 14 µM (inactive), the GI50 [52] was 12.1 µM (inactive) and the GI50 [53] was 6.59 µM (inactive). The GI50 [54] was 10.8 µM (inactive), the GI50 [55] was 6.62 µM (inactive) and the GI50 [56] was 18.2 µM (inactive).
O=C(O)C1CC(c2ccc(F)cc2)=Nc2ccc(F)cc2S1 (stereo not given) was tested, and the GI50 [1] was > 100 µM (inactive), the GI50 [2] was > 100 µM (inactive) and the GI50 [3] was > 100 µM (inactive). The GI50 [57] was > 100 µM (inactive), the GI50 [4] was > 100 µM (inactive) and the GI50 [5] was > 100 µM (inactive). The GI50 [6] was > 100 µM (inactive), the GI50 [7] was > 100 µM (inactive) and the GI50 [8] was > 100 µM (inactive). The GI50 [9] was > 100 µM (inactive), the GI50 [10] was > 100 µM (inactive) and the GI50 [11] was > 100 µM (inactive). For the same compound, the GI50 [12] was > 100 µM (inactive), the GI50 [13] was > 100 µM (inactive) and the GI50 [14] was > 100 µM (inactive). For the same compound, the GI50 [15] was > 100 µM (inactive), the GI50 [58] was > 100 µM (inactive) and the GI50 [16] was > 100 µM (inactive). The GI50 [17] was > 100 µM (inactive), the GI50 [59] was > 100 µM (inactive) and the GI50 [18] was > 100 µM (inactive). For the same compound, the GI50 [19] was > 100 µM (inactive), the GI50 [20] was > 100 µM (inactive) and the GI50 [21] was > 100 µM (inactive). For the same compound, the GI50 [22] was > 10 µM (inactive), the GI50 [23] was > 100 µM (inactive) and the GI50 [24] was > 100 µM (inactive). For the same compound, the GI50 [25] was > 100 µM (inactive), the GI50 [26] was > 100 µM (inactive) and the GI50 [28] was > 100 µM (inactive). The GI50 [29] was > 100 µM (inactive), the GI50 [31] was > 10 µM (inactive) and the GI50 [32] was > 100 µM (inactive). For the same compound, the GI50 [33] was > 100 µM (inactive), the GI50 [34] was > 100 µM (inactive) and the GI50 [35] was > 100 µM (inactive). The GI50 [36] was 92.3 µM (inactive), the GI50 [37] was > 100 µM (inactive) and the GI50 [38] was > 100 µM (inactive). For the same compound, the GI50 [39] was > 100 µM (inactive), the GI50 [40] was over 100 µM and the GI50 [41] was > 100 µM (inactive). The GI50 [42] was > 100 µM (inactive), the GI50 [43] was > 100 µM (inactive) and the GI50 [44] was > 100 µM (inactive). The GI50 [45] was > 100 µM (inactive), the GI50 [46] was > 100 µM (inactive) and the GI50 [47] was > 100 µM (inactive). For the same compound, the GI50 [48] was > 100 µM (inactive), the GI50 [49] was > 100 µM (inactive) and the GI50 [50] was > 100 µM (inactive). For the same compound, the GI50 [51] was > 100 µM (inactive), the GI50 [52] was > 100 µM (inactive) and the GI50 [53] was > 100 µM (inactive). The GI50 [54] was 68.2 µM (inactive), the GI50 [55] was > 100 µM (inactive) and the GI50 [56] was > 100 µM (inactive).

— ChEMBL document CHEMBL1201862, “PubChem BioAssay data set” (2004)
